Earlier results on 1 molecule are cited in patent US20250302889A1, “Ingestible Nutritive Compositions With Prebiotics, Probiotics, and Postbiotics” (First Day Life, Inc., priority 2024, published 2025).

For series [1] the following is noted: 24 hours after injection, vs carrageenan control group.
The conditions of series [2]: 24 hours; probiotics 10^8 CFUs, diclofenac sodium 150 mg/kg, single dose.
For series [3] the following is noted: 24 hours after injection, vs carrageenan control group. This is another data set of the same source.

As to `O=C(O)Cc1ccccc1Nc1c(Cl)cccc1Cl` [diclofenac sodium], in series [1], the motility test score entry is on record as “scored significantly higher”. In addition, the inhibition of edema entry in series [2] is “about 34%”. Also, the “stair climbing activity (steps climbed)” value in series [3] is “climbed significantly more steps”.
